Results published in patent US7855292B2, “Sulfonamide compounds” (Janssen Pharmaceutica NV, priority 2004, dated 2010).

Key:
CCK2 receptor = molecular target: T1, CCK2 receptor (Homo sapiens, UniProt P32239); assay: CCK2 binding assay ([125I]-BH-CCK-8S displacement, HEKZFP membranes); settings: membranes of doxycycline-induced HEKZFP cells, 20 pM [125I]-BH-CCK-8S, 60 min at 21±3° C.; for Ki: read-out: CCK2 pKi (converted)
T1 construct: analyzed for ZFP expression as well as CCK2R induction upon addition of doxycycline to the culture medium; endogenous in cells
T1 sequence (P32239 1-447): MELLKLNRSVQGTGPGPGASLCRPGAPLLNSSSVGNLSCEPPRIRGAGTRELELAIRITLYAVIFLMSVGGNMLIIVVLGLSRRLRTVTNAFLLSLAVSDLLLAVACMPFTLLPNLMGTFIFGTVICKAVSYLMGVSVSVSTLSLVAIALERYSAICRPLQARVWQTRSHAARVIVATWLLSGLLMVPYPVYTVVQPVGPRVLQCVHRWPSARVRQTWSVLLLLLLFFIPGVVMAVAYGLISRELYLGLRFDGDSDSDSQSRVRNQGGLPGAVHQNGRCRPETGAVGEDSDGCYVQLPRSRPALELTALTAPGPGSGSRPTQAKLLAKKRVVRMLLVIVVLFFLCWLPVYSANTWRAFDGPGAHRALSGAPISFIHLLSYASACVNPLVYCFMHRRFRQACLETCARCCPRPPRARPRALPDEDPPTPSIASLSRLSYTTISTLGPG

CCK-1 receptor = molecular target: T2, CCK-1 receptor (Homo sapiens, UniProt P32238); assay: CCK1 binding assay ([125I]-BH-CCK-8S displacement, CHO-K1 membranes); settings: membranes of CHO-K1 cells stably transfected with the CCK-1 receptor, 20 pM [125I]-BH-CCK-8S, 0.3 μM PD-134,308 present, 60 min at 21±3° C.; for Ki: read-out: CCK1 pKi (converted)
T2 construct: expressed in transfected cells; host or cells: CHO-K1
T2 sequence (P32238 1-428): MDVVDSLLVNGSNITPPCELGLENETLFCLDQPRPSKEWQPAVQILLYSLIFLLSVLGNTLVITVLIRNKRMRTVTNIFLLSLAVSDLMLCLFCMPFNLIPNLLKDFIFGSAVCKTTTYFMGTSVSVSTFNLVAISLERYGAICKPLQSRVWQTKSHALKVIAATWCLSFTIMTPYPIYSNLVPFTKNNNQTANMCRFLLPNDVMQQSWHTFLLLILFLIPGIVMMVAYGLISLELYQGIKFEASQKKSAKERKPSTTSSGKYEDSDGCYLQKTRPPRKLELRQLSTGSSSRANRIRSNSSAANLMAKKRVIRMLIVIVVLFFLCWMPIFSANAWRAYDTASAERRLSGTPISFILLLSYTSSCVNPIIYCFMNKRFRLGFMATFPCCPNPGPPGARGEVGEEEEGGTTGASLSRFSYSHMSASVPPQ
Procedure, shortened: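 Membranes from CHO-K1 cells stably expressing CCK-1 incubated 1 h at 21±3° C with 20 pM [125I]-BH-CCK-8S in HEPES buffer pH 7.2 containing 0.3 μM PD-134,308 to block CCK-2. Bound radioactivity read by gamma counting after filtration. pKi derived via Cheng-Prusoff, with specific binding defined using 2-NAP.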

Row | Ki (CCK2 receptor) [µM] | Ki (CCK-1 receptor) [µM] | CCK1 pKi (CCK-1 receptor) | CCK2 pKi (CCK2 receptor) | SMILES
1 | 3.16 | 0.316 |  |  | O=C(N[C@H](Cc1ccc(Cl)cc1)C(=O)O)c1cc(Cl)ccc1NS(=O)(=O)c1cccc2nsnc12 [Example 62, (R)-2-[2-(Benzo[1,2,5]thiadiazole-4-sulfonylamino)-5-chloro-benzoylamino]-3-(4-chloro-phenyl)-propionic acid]
2 | 0.0316 | 1.26 |  |  | O=C(N[C@@H](Cc1ccc(Cl)cc1)C(=O)O)c1ccc(I)cc1NS(=O)(=O)c1cccc2nccnc12 [Example 90, (S)-3-(4-Chloro-phenyl)-2-[4-iodo-2-(quinoxaline-5-sulfonylamino)-benzoylamino]-propionic acid]
3 | 0.0794 | 0.398 |  |  | O=C(N[C@H](Cc1cccc(Br)c1)C(=O)O)c1ccc(I)cc1NS(=O)(=O)c1cccc2nsnc12 [Example 115, (R)-2-[2-(Benzo[1,2,5]thiadiazole-4-sulfonylamino)-4-iodo-benzoylamino]-3-(3-bromo-phenyl)-propionic acid]
4 | 0.501 | 3.16 |  |  | COC(=O)[C@H](Cc1ccc(Br)s1)NC(=O)c1ccc(Cl)cc1NS(=O)(=O)c1cccc2nccnc12 [Example 8, (S)-3-(5-Bromo-thiophen-2-yl)-2-[4-chloro-2-(quinoxaline-5-sulfonylamino)-benzoylamino]-propionic acid methyl ester]
5 | 0.794 |  | 5.4 |  | CC(C)(c1ccc(Cl)cc1)[C@H](NC(=O)c1ccc(Cl)cc1NS(=O)(=O)c1cccc2nsnc12)C(=O)O [Example 107, (S)-2-[2-(Benzo[1,2,5]thiadiazole-4-sulfonylamino)-4-chloro-benzoylamino]-3-(4-chloro-phenyl)-3-methyl-butyric acid]
6 | 1.58 | 0.316 |  |  | COC(=O)C(NC(=O)c1ccc(Cl)cc1NS(=O)(=O)c1cccc2nccnc12)C(=O)c1ccc(Cl)c(Cl)c1 (racemic) [Example 18, (±)-2-[4-Chloro-2-(quinoxaline-5-sulfonylamino)-benzoylamino]-3-(3,4-dichloro-phenyl)-3-oxo-propionic acid methyl ester]
7 | 0.1 | 0.501 |  |  | O=C(NC(CO)Cc1ccc(Cl)cc1)c1ccc(Cl)cc1NS(=O)(=O)c1cccc2nsnc12 (racemic) [Example 52, (±)-2-(Benzo[1,2,5]thiadiazole-4-sulfonylamino)-4-chloro-N-[2-(4-chloro-phenyl)-1-hydroxymethyl-ethyl]-benzamide]
8 |  |  | 6.4 | 8.0 | O=C(N[C@@H](Cc1ccc(F)c(Br)c1)C(=O)O)c1ccc(Cl)cc1NS(=O)(=O)c1cccc2nccnc12 [Example 159, (S)-3-(3-Bromo-4-fluoro-phenyl)-2-[4-chloro-2-(quinoxaline-5-sulfonylamino)-benzoylamino]-propionic acid]
9 | 0.0251 | 0.251 |  |  | O=C(N[C@@H](Cc1ccc(Cl)c(Br)c1)C(=O)O)c1ccc(Cl)cc1NS(=O)(=O)c1cccc2nccnc12 [Example 146, (S)-3-(3-Bromo-4-chloro-phenyl)-2-[4-chloro-2-(quinoxaline-5-sulfonylamino)-benzoylamino]-propionic acid]
10 | 0.631 | 0.316 |  |  | COC(=O)[C@H](Cc1ccc(F)c(Br)c1)NC(=O)c1ccc(I)cc1NS(=O)(=O)c1c(F)cccc1F [Example 125, (S)-3-(3-Bromo-4-fluoro-phenyl)-2-[2-(2,6-difluoro-benzenesulfonylamino)-4-iodo-benzoylamino]-propionic acid methyl ester]
11 | 0.631 | 0.158 |  |  | COC(=O)[C@H](Cc1ccc(Cl)c(Br)c1)NC(=O)c1ccc(Br)cc1NS(=O)(=O)c1cccc2nsnc12 [Example 142, (S)-2-[2-(Benzo[1,2,5]thiadiazole-4-sulfonylamino)-4-bromo-benzoylamino]-3-(3-bromo-4-chloro-phenyl)-propionic acid methyl ester]
12 | 0.631 | 1 |  |  | CC(Cc1ccc(Cl)cc1)NC(=O)c1ccc(Br)cc1NS(=O)(=O)c1cccc2scnc12 (stereo not shown) [Example 23, 2-(Benzothiazole-4-sulfonylamino)-4-bromo-N-[2-(4-chloro-phenyl)-1-methyl-ethyl]-benzamide]
13 | 0.0398 | 0.158 |  |  | O=C(N[C@@H](Cc1ccc(Cl)cc1)C(=O)O)c1ccc(I)cc1NS(=O)(=O)c1cccc2nsnc12 [Example 33, 2-[2-(Benzo[1,2,5]thiadiazole-4-sulfonylamino)-4-iodo-benzoylamino]-3-(4-chloro-phenyl)-propionic acid]
14 | 0.2 | 0.158 |  |  | COC(=O)[C@H](Cc1ccc(F)c(Br)c1)NC(=O)c1ccc(Br)cc1NS(=O)(=O)c1cccc2nsnc12 [Example 143, (S)-2-[2-(Benzo[1,2,5]thiadiazole-4-sulfonylamino)-4-bromo-benzoylamino]-3-(3-bromo-4-fluoro-phenyl)-propionic acid methyl ester]
